Measured values as given in US6376497B1, “Antifungal azole derivatives having a fluorinated vinyl group and process for preparing same” (Korea Research Institute of Chemical Technology, priority 1999, dated 2002).

What was measured:
Assay in all cases: In vitro antifungal activity, microbroth dilution MIC
Type in all cases: cell-based
[1] = system: Candida albicans IFO. 1385; conditions: 4 to 48 hours; for Minimal inhibitory concentration(MIC), C. albicans IFO. 1385: RPMI-1640, 35° C., no growth observed; for Minimal inhibitory concentration (MIC): C. albicans IFO. 1385, RPMI-1640, 35° C.
Summary of the method: (§1)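 Broth microdilution adapted from NCCLS M27, in RPMI-1640 with 0.165 M MOPS, pH 7.0. Yeast or mould inoculum at 2×10^3 CFU/ml was mixed 1:1 with DMSO-derived compound solutions (200 to 0.10 μg/ml before mixing) and incubated at 35 °C for 4 to 48 h. MIC was the concentration showing no growth.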

[2] = system: Candida parapsitosis A. 7330; conditions: 4 to 48 hours; for Minimal inhibitory concentration(MIC), C. parapsitosis A. 7330: RPMI-1640, 35° C., no growth observed; for Minimal inhibitory concentration (MIC): C. parapsitosis A. 7330, RPMI-1640, 35° C.
Summary of the method: as §1

[3] = system: Candida tropicalis A. 13803; conditions: 4 to 48 hours; for Minimal inhibitory concentration(MIC), C. tropicalis A. 13803: RPMI-1640, 35° C., no growth observed; for Minimal inhibitory concentration (MIC): C. tropicalis A. 13803, RPMI-1640, 35° C.
Summary of the method: as §1

[4] = system: Cryptococcus neoformans IFM. 40092; conditions: 4 to 48 hours; for Minimal inhibitory concentration(MIC), Cry. neoformans IFM. 40092: RPMI-1640, 35° C., no growth observed; for Minimal inhibitory concentration (MIC): Cry. neoformans IFM. 40092, RPMI-1640, 35° C.
Summary of the method: as §1

[5] = system: Torulopsis glabrata B. 16205; conditions: 4 to 48 hours; for Minimal inhibitory concentration(MIC), T. glabrata B. 16205: RPMI-1640, 35° C., no growth observed; for Minimal inhibitory concentration (MIC): T. glabrata B. 16205, RPMI-1640, 35° C.
Summary of the method: as §1

[6] = system: Aspergillus furnigatus B. 19119; conditions: 4 to 48 hours; for Minimal inhibitory concentration(MIC), A furnigatus B. 19119: RPMI-1640, 35° C., no growth observed; for Minimal inhibitory concentration (MIC): A furnigatus B. 19119, RPMI-1640, 35° C.
Summary of the method: as §1

[7] = system: Trichophyton mentagrophytes B. 32663; conditions: 4 to 48 hours; for Minimal inhibitory concentration(MIC), T. mentagrophytes B. 32663: RPMI-1640, 35° C., no growth observed; for Minimal inhibitory concentration (MIC): T. mentagrophytes B. 32663, RPMI-1640, 35° C.
Summary of the method: as §1

[8] = system: Candida albicans A. 10231; conditions: 4 to 48 hours; for Minimal inhibitory concentration(MIC), C. albicans A. 10231: RPMI-1640, 35° C., no growth observed; for Minimal inhibitory concentration (MIC): C. albicans A. 10231, RPMI-1640, 35° C.
Summary of the method: as §1

[9] = system: Cryptococcus neoformans B. 42419; conditions: 4 to 48 hours; for Minimal inhibitory concentration(MIC), Cry. neoformans B. 42419: RPMI-1640, 35° C., no growth observed; for Minimal inhibitory concentration (MIC): Cry. neoformans B. 42419, RPMI-1640, 35° C.
Summary of the method: as §1

[10] = system: Candida krusei K. 11655; conditions: 4 to 48 hours; for Minimal inhibitory concentration(MIC), C. krusei K. 11655: RPMI-1640, 35° C., no growth observed; for Minimal inhibitory concentration (MIC): C. krusei K. 11655, RPMI-1640, 35° C.
Summary of the method: as §1

[11] = system: Aspergillus niger A. 16404; conditions: 4 to 48 hours; for Minimal inhibitory concentration(MIC), A. niger A. 16404: RPMI-1640, 35° C., no growth observed; for Minimal inhibitory concentration (MIC): A. niger A. 16404, RPMI-1640, 35° C.
Summary of the method: as §1

[12] = system: Cryptococcus neoformans A. 34144; conditions: 4 to 48 hours; for Minimal inhibitory concentration(MIC), Cry. neoformans A. 34144: RPMI-1640, 35° C., no growth observed; for Minimal inhibitory concentration (MIC): Cry. neoformans A. 34144, RPMI-1640, 35° C.
Summary of the method: as §1

[13] = system: Candida albicans C1-2; conditions: 4 to 48 hours; for Minimal inhibitory concentration(MIC), C. albicans C1-2: RPMI-1640, 35° C., no growth observed; for Minimal inhibitory concentration (MIC): C. albicans C1-2, RPMI-1640, 35° C.
Summary of the method: as §1

[14] = system: Trichophyton mentagrophytes A. 9129; conditions: 4 to 48 hours; for Minimal inhibitory concentration(MIC), T. mentagrophytes A. 9129: RPMI-1640, 35° C., no growth observed; for Minimal inhibitory concentration (MIC): T. mentagrophytes A. 9129, RPMI-1640, 35° C.
Summary of the method: as §1

[15] = system: Candida pseudotropicalis K. 11658; conditions: 4 to 48 hours; for Minimal inhibitory concentration(MIC), C. pseudotropicalis K. 11658: RPMI-1640, 35° C., no growth observed; for Minimal inhibitory concentration (MIC): C. pseudotropicalis K. 11658, RPMI-1640, 35° C.
Summary of the method: as §1

| Minimal inhibitory concentration(MIC), C. albicans IFO. 1385 [1] [µg/mL] | Minimal inhibitory concentration(MIC), C. parapsitosis A. 7330 [2] [µg/mL] | Minimal inhibitory concentration(MIC), C. tropicalis A. 13803 [3] [µg/mL] | Minimal inhibitory concentration(MIC), Cry. neoformans IFM. 40092 [4] [µg/mL] | Minimal inhibitory concentration(MIC), T. glabrata B. 16205 [5] [µg/mL] | Minimal inhibitory concentration(MIC), A furnigatus B. 19119 [6] [µg/mL] | Minimal inhibitory concentration(MIC), T. mentagrophytes B. 32663 [7] [µg/mL] | Minimal inhibitory concentration(MIC), C. albicans A. 10231 [8] [µg/mL] | Minimal inhibitory concentration(MIC), Cry. neoformans B. 42419 [9] [µg/mL] | Minimal inhibitory concentration(MIC), C. krusei K. 11655 [10] [µg/mL] | Minimal inhibitory concentration(MIC), A. niger A. 16404 [11] [µg/mL] | Minimal inhibitory concentration(MIC), Cry. neoformans A. 34144 [12] [µg/mL] | Minimal inhibitory concentration(MIC), C. albicans C1-2 [13] [µg/mL] | Minimal inhibitory concentration(MIC), T. mentagrophytes A. 9129 [14] [µg/mL] | Minimal inhibitory concentration(MIC), C. pseudotropicalis K. 11658 [15] [µg/mL] | Minimal inhibitory concentration (MIC) [1] [µg/mL] | Minimal inhibitory concentration (MIC) [2] [µg/mL] | Minimal inhibitory concentration (MIC) [3] [µg/mL] | Minimal inhibitory concentration (MIC) [4] | Minimal inhibitory concentration (MIC) [5] [µg/mL] | Structure (SMILES) | also measured |
| --- | --- | --- | --- | --- | --- | --- | --- | --- | --- | --- | --- | --- | --- | --- | --- | --- | --- | --- | --- | --- | --- |
| 3.13 | 3.13 | >100 | 0.20 | >100 | >100 | 1.56 | >100 | 0.39 | 1.56 | >100 | 0.78 | >100 | 6.25 | 1.56 |  |  |  |  |  | FC(=C(c1cccc(Cl)c1)C(F)(F)F)N1CCN(c2ccc(OCC3COC(Cn4ccnc4)(c4ccc(Cl)cc4Cl)O3)cc2)CC1 (mixture of isomers) [Ex. 133] |  |
|  |  |  |  |  |  |  |  |  |  |  |  |  |  |  | 0.20 | 25.0 | 50.0 | ≦0.10 μg/ml | 12.5 | FC(=Cc1cccc(F)c1)OCC1COC(Cn2ccnc2)(c2ccc(F)cc2F)O1 (mixture of isomers) [Ex. 48] | Minimal inhibitory concentration (MIC) [6]: 1.56 µg/mL; Minimal inhibitory concentration (MIC) [7]: ≦0.10 μg/ml; Minimal inhibitory concentration (MIC) [8]: 25.0 µg/mL; Minimal inhibitory concentration (MIC) [9]: 0.78 µg/mL; Minimal inhibitory concentration (MIC) [10]: 25.0 µg/mL; Minimal inhibitory concentration (MIC) [11]: 6.25 µg/mL; Minimal inhibitory concentration (MIC) [12]: 0.78 µg/mL; Minimal inhibitory concentration (MIC) [13]: 25.0 µg/mL; Minimal inhibitory concentration (MIC) [14]: 0.39 µg/mL; Minimal inhibitory concentration (MIC) [15]: 12.5 µg/mL |
| 3.13 | 3.13 | >100 | 0.39 | >100 | >100 | 3.13 | >100 | 0.78 | 3.13 | >100 | 0.78 | >100 | 12.5 | 1.56 |  |  |  |  |  | CCc1ccc(C(=C(F)N2CCN(c3ccc(OCC4COC(Cn5ccnc5)(c5ccc(Cl)cc5Cl)O4)cc3)CC2)C(F)(F)F)cc1 (mixture of isomers) [Ex. 127] |  |
|  |  |  |  |  |  |  |  |  |  |  |  |  |  |  | 0.78 | >100 | >100 | 0.78 µg/mL | 3.13 | FC(OCC1COC(Cn2ccnc2)(c2ccc(F)cc2F)O1)=C(c1ccc(C(F)(F)F)cc1)C(F)(F)F (mixture of isomers) [Ex. 59] | Minimal inhibitory concentration (MIC) [6]: 50.0 µg/mL; Minimal inhibitory concentration (MIC) [7]: 12.5 µg/mL; Minimal inhibitory concentration (MIC) [8]: 12.5 µg/mL; Minimal inhibitory concentration (MIC) [9]: 3.13 µg/mL; Minimal inhibitory concentration (MIC) [10]: 50.0 µg/mL; Minimal inhibitory concentration (MIC) [11]: >100 µg/mL; Minimal inhibitory concentration (MIC) [12]: 3.13 µg/mL; Minimal inhibitory concentration (MIC) [13]: 25.0 µg/mL; Minimal inhibitory concentration (MIC) [14]: 25.0 µg/mL; Minimal inhibitory concentration (MIC) [15]: 25.0 µg/mL |
